In patent US20240329063A1, “METHOD FOR EVALUATING RESIDUAL PLATELET THROMBOTIC POTENTIAL IN PATIENTS UNDERGOING ANTIPLATELET TREATMENT” (Centro Cardiologico Monzino S.P.A., priority 2021, published 2024):

Columns and labels:
[1] = test system: P-selectin; assay: ADP-induced P-selectin expression on platelets, flow cytometry, in vitro antagonist inhibition curves; format: cell-based, human
Method: (§1) The data obtained in patients without clopidogrel (No clopido) (n=39) are shown for comparison purposes. Panels C, D and E show the ADP concentration-response curves (black squares) and AR-C69931MX antagonist inhibition curves (white triangles) relating to TF, aGPIIbIIIa and P-selectin respectively. The EC50 of the agonist was calculated with a four-parameter logistic model, while the pA2s of the antagonist were calculated as described in Materials and Methods. The results are presented as percentage expression of the protein compared with baseline (s/b). The experiments were conducted at least three times. **p<0.01, ***p<0.001.
(§2) For the analysis of intracellular expression of TF, the cells were fixed for 2 hours with 1% paraformaldehyde, permeabilised for 10 min with an 0.1% solution of Triton X-100 PBS, and labelled for 15 min at room temperature in the dark with saturating concentrations of anti-TF and CD61 antibodies (PerCP; Becton Dickinson). […] All the data were analysed with Kaluza analysis software v1.5 (Beckman Coulter) and reported as percentage of positive cells or MFI (mean fluorescence intensity) of platelets positive to the activation marker.
(§3) A p-value of 0.05 was considered statistically significant. […] All curves shown are generated by informatics methods.

[2] = test system: TF; assay: ADP-induced TF expression on platelets, flow cytometry, in vitro antagonist inhibition curves; format: cell-based, human; settings: ADP-stimulated platelets, spread as % CV, FIG. 1D-F
Method: as §1, §2, §3

[3] = test system: aGPIIbIIIa; assay: ADP-induced aGPIIbIIIa expression (PAC1 binding) on platelets, flow cytometry, in vitro antagonist inhibition curves; format: cell-based, human; settings: ADP-stimulated platelets, spread as % CV, FIG. 1D-F
Method: as §1, §2, §3

[4] = test system: P-selectin; settings: clopidogrel 75 mg/day; 10 μM ADP; all CAD patients, to the same extent regardless of the degree of VASP phosphorylation; FIG. 1C
Method: (§4) The in vitro experiments were conducted on 10 healthy volunteers (n=5 males and n=5 females; average age 39±6) who had not taken antiplatelet medicaments in the 10 days before the blood sample was taken. The effect of clopidogrel on TF expression was evaluated on 193 patients suffering from coronary artery disease (CAD) with myocardial infarction with non-ST elevation. […] The clinical characteristics of the patients enrolled are set out in Table 1.
(§5) The exclusion criteria were: age >80 years, valvular heart disease, atrial fibrillation, thyrotoxicosis, history of haemorrhagic diathesis, platelet disorder or thrombocytopenia, anticoagulant or thrombolytic treatment. A subject with severe congenital P2Y12 deficiency (person) was also studied.
(§6) Whole blood (WB) samples were taken with a 19 gauge needle without venous stasis in tubes containing sodium citrate (0.129 M, 1/10 volume/volume) (Vacutainer, Becton Dickinson), discarding the first 4 ml. The blood samples were then processed within 15 minutes of sample-drawing. The WB was centrifuged (room temperature, without centrifuge brake) at 100 g for 10 minutes to isolate the platelets. The platelet-rich plasma (PRP) was transferred to a new test tube and analysed with the Sysmex XE-2100 Automated Hematology Analyzer to determine the platelet count, mean platelet volume (MPV), platelet distribution […] (PDW), platelet recovery (defined as the percentage of the platelet count in the PRP to 100% of the number of platelets in the WB), and leukocyte contamination. Only the platelet preparations free of leukocyte contamination and with platelet recovery >70% were used for the subsequent thrombin generation analysis.
(§7) Surface expression of platelet activation markers was analysed by flow cytometry as previously described (Brambilla M, et al., Arterioscler Thromb Vasc Biol. 2008;28 (5): 947-953). Briefly, the samples were incubated/labelled with saturating concentrations of mouse monoclonal antibodies recognizing human tissue factor (HTF1; Thermo Fisher), P-selectin (APC; Becton Dickinson), PAC1 (FITC; Becton Dickinson), CD36 (PE; Becton Dickinson) and CD154 (FITC; Becton Dickinson). For the analysis of intracellular expression of TF, the cells were fixed for 2 hours with 1% paraformaldehyde, permeabilised for 10 min with an 0.1% solution of Triton X-100 PBS, and labelled for 15 min at room temperature in the dark with saturating concentrations of anti-TF and CD61 antibodies (PerCP; Becton Dickinson).

[5] = test system: aGPIIbIIIa; settings: clopidogrel 75 mg/day; 10 μM ADP; FIG. 1B
Method: as §4, §5, §6, §7

[6] = test system: TF; settings: clopidogrel 75 mg/day, FIG. 1A
Method: as §4, §5, §6, §7

Structure (SMILES)	pA2 for inhibition of P-selectin expression ([1]; ADP-stimulated platelets, spread as % CV, FIG. 1D-F)	power (pA2) to inhibit P-selectin expression relative to that required to inhibit TF ([1]; P-selectin versus TF)	power (pA2) to inhibit P-selectin expression relative to that required to inhibit aGPIIbIIIa ([1]; P-selectin versus aGPIIbIIIa)	pA2 for inhibition of TF expression [2]	pA2 for inhibition of aGPIIbIIIa expression [3]	P-selectin expression [4]	expression of activated glycoprotein IIbIIIa measured by the PAC1 bond [5]	inhibition of TF exposed to stimulation with 10 μM ADP, poor responders versus good responders ([6]; patients with PRI >60% compared with PRI <60%)	inhibition of TF exposed to stimulation with 10 μM ADP, poor responders versus untreated subjects ([6]; patients with PRI >60% compared with subjects not treated with clopidogrel)
CSCCNc1nc(SCCC(F)(F)F)nc2c1ncn2[C@@H]1O[C@H](COP(=O)(O)OP(=O)(O)C(Cl)(Cl)P(=O)(O)O)[C@@H](O)[C@H]1O [AR-C69931MX]	11.5±3.1	150 times	6 times	9.33±2.1	10.7±0.29	–	–	–	–
COC(=O)[C@H](c1ccccc1Cl)N1CCc2sccc2C1 [clopidogrel]	–	–	–	–	–	significantly inhibited	highest in the poor responders	significantly less than that measured in the good responders	not statistically different from that measured in the subjects not treated with clopidogrel
